In one assay the target is T1, FLT3 D835H (Homo sapiens, UniProt P36888, D835H).
T1 construct: purchased DiscoverX (KINOMEscan); host or cells: E. coli (T7 phage) or HEK-293
T1 sequence (P36888 27-993 D835H): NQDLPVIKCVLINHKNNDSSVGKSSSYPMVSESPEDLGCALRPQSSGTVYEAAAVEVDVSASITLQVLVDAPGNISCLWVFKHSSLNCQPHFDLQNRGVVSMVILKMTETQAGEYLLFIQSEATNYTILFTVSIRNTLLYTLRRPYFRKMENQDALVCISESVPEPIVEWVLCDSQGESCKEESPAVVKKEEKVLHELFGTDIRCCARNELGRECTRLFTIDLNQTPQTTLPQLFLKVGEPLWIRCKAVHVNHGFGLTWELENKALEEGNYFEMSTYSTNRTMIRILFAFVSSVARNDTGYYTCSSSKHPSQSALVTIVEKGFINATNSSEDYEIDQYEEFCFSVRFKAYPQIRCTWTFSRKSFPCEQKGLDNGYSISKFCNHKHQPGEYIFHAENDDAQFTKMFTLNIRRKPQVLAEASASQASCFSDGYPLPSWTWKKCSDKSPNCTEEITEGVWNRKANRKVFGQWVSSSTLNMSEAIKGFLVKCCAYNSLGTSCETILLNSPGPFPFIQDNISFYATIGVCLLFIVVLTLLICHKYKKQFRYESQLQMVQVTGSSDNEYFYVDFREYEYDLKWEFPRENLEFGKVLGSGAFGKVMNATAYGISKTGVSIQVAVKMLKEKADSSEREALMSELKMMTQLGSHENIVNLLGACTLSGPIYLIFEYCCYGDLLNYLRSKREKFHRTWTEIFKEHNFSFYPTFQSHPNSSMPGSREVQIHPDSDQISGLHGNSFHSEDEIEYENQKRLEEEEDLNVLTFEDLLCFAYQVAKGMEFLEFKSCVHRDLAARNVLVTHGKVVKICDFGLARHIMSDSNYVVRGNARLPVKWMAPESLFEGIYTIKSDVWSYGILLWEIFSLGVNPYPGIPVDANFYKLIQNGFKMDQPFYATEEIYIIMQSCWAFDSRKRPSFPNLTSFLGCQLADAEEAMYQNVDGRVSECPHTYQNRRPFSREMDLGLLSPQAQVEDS
Put plainly: DiscoverX KINOMEscan competition binding, FLT3 D835H. Particulars: no ATP. The text has this: (§1) Kinase binding data were obtained for various exemplary compounds prepared according to Examples 2-15 using the DiscoverX KINOMEscan® active site-directed competition binding site-directed assay protocol described below. […] As a result, the data report thermodynamic interaction affinities (Kd values), rather than IC50 values that are dependent on ATP concentrations. The assay uses a DNA-tagged version of the protein kinase, and an immobilized ligand bound to a solid support. Compounds that directly or indirectly prevent kinase binding to the immobilized ligand reduce the amount of kinase captured on the solid support, which is detected using an ultra-sensitive qPCR method. Affinity constants reported from the assay have been reported to be independent of the immobilized ligand used that is coupled to the solid support (See supplemental information in Fabian, M. A. et. al., (2005) Nat. […] Wodicka, L. […] Biol. 17, 1241-1249.) Kinase-tagged T7 phage strains were prepared in an E. coli host derived from the BL21 strain. E. coli were grown to log-phase and infected with T7 phage and incubated with shaking at 32° C. until lysis. […] Kds were determined using an 11-point 3-fold compound dilution series with three DMSO control points. […] The kinase concentration in the eluates was measured by qPCR. Binding constants (Kds) were calculated with a standard dose-response curve using the Hill equation. […]

The target in a further assay is T2, FLT3 ITD, D835V (Homo sapiens, UniProt P36888, D835V, form not given).
T2 construct: fused on or other part: DNA tag for qPCR read-out (T7 phage fusion, or DNA-tagged kinase made in HEK-293 cells)
T2 sequence (P36888 1-993 D835V): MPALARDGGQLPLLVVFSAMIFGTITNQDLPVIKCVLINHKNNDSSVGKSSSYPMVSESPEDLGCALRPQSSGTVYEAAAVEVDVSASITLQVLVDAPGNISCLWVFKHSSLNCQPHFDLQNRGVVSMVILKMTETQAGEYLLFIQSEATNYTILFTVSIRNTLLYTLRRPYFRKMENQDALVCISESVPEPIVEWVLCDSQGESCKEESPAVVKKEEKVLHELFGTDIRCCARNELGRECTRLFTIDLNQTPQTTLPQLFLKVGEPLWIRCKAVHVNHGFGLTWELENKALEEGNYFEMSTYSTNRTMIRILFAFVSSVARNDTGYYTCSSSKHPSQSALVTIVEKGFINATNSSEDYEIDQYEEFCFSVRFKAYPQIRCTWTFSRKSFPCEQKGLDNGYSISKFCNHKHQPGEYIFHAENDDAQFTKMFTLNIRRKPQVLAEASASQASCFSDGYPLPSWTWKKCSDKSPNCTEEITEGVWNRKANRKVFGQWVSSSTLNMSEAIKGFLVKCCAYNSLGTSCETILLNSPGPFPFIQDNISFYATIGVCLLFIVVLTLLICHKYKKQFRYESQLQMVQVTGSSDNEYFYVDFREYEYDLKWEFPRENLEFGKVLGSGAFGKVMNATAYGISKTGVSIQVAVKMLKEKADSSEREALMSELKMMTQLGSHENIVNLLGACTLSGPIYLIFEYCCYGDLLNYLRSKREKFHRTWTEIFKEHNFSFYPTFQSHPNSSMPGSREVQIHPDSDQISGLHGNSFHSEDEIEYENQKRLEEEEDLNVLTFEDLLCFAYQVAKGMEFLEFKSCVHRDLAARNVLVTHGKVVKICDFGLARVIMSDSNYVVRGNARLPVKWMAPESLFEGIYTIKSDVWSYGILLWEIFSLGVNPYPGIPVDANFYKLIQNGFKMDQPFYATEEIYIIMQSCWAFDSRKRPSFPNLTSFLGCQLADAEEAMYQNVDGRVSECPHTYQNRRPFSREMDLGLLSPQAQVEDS
Description: DiscoverX KINOMEscan competition binding, FLT3 ITD, D835V. The settings on record: no ATP.
Text: as §1

Drawing on patent publication US20250368648A1, “MULTI-CYCLIC IRAK AND FLT3 INHIBITING COMPOUNDS AND USES THEREOF” (CHILDREN'S HOSPITAL MEDICAL CENTER, priority 2022, published 2025), this text covers Kd for one molecule.

By Kd is commonly meant a measure of binding affinity in units of concentration.

For `COc1cc2ncc(-c3nc(N[C@H]4CNCC[C@@H]4F)c(F)cc3F)n2nc1C1CCC1` [Compound 15a, 6-(6-cyclobutyl-7-methoxyimidazo[1,2-b]pyridazin-3-yl)-3,5-difluoro-N-((3S,4S)-4-fluoropiperidin-3-yl)pyridin-2-amine], the Kd at FLT3 D835H is less than 0.17 nM; on FLT3 ITD, D835V it was less than 0.17 nM.
